Data set [1] in a line: in vitro. As to conditions: rat, plasma, pH 7.4.
Description: Fraction unbound (%) in rat plasma at pH 7.4 after 18 hrs by equilibrium dialysis
Data set [2] can be described thus: in vitro. To be noted: human, plasma, pH 7.4.
Description: Fraction unbound (%) in human plasma at pH 7.4 after 18 hrs by equilibrium dialysis
Data set [3] in a line: in vitro. To be noted: dog, plasma, pH 7.4.
Description: Fraction unbound (%) in dog plasma at pH 7.4 after 18 hrs by equilibrium dialysis
The test system of data set [4] is Plasma. In words: Fraction unbound (%) in human plasma in phosphate buffer after 30 mins by liquid scintillation counting. The class given is ADME, cell-free. As to conditions: 0.5 h.
For data set [5], the system named is Plasma. In words: Fraction unbound (%) in rat plasma in phosphate buffer after 30 mins by liquid scintillation counting. Type of data set: ADME, cell-free. To be noted: 0.5 h.
Data set [6] is described as follows: Fraction unbound (%) in mouse plasma at pH 7.4 after 18 hrs by equilibrium dialysis. The class given is ADME, cell-free. (In equilibrium dialysis only unbound substance equilibrates across the membrane.)

Here are results for nine compounds from ChEMBL document CHEMBL3588839, “Species differences in drug plasma protein binding” (Medchemcomm, 2014).

Molecules are shown by their SMILES.

For the compound `CO[C@@]1(NC(=O)C2SC(=C(C(N)=O)C(=O)O)S2)C(=O)N2C(C(=O)O)=C(CSc3nnnn3C)CS[C@@H]21` (stereo partly specified) [CEFOTETAN], the values for the fraction unbound at 18 h in data set [1], in data set [2] and in data set [3] were 0.7, 0.09 and 0.61, respectively.

On to `CCCc1nn(C)c2c(=O)[nH]c(-c3cc(S(=O)(=O)N4CCN(C)CC4)ccc3OCC)nc12`, for which the fraction unbound – broadly, free concentration divided by total concentration – at 18 h in data set [2] amounted to 0.064; in data set [3], 0.26.

As to `c1ccc(C(O[C@@H]2CCCN(CCc3ccc4c(c3)OCO4)C2)c2ccccc2)cc1` [ZAMIFENACIN], the fraction unbound at 18 h came to 0.002 in data set [1] and 0.0001 in data set [2].

Take `O=c1[nH]c2ccccc2n1C1CCN(CCCC(c2ccc(F)cc2)c2ccc(F)cc2)CC1` [PIMOZIDE]: the fraction unbound at 18 h came to 0.0016 in data set [2] and 0.0004 in data set [3].

Regarding `CCOc1ccccc1OCCN[C@H](C)Cc1ccc(OC)c(S(N)(=O)=O)c1` [TAMSULOSIN], in data set [1], the fraction unbound at 18 h was determined as 0.2. Moreover, the Fu in data set [4] was found to be 1%; in data set [5], 20%.

Turning to `Cc1cc(O)c(C(=O)N[C@@H](C(=O)N[C@@H]2C(=O)N3C(C(=O)O)=C(CSc4nnnn4C)CS[C@H]23)c2ccc(O)cc2)cn1` [CEFPIRAMIDE], the fraction unbound at 18 h in data set [2] is 0.09; in data set [3], 0.6.

Take `CC[C@@H](c1ccccc1)c1c(O)c2ccccc2oc1=O`: the fraction unbound at 18 h in data set [2] was 0.007; in data set [6], 0.11.

As to `CCCC(CCC)C(=O)O` [VALPROIC ACID], the unbound share (fraction unbound) at 18 h came to 0.88 in data set [1] and 0.052 in data set [2].

Consider `COc1cc([C@@H]2c3cc4c(cc3[C@@H](O[C@@H]3O[C@@H]5CO[C@@H](C)O[C@H]5[C@H](O)[C@H]3O)[C@H]3COC(=O)[C@H]23)OCO4)cc(OC)c1O` [ETOPOSIDE], for which the fraction unbound at 18 h came to 0.52 in data set [1], 0.049 in data set [2] and 0.63 in data set [3].
